We go through 23 compounds from publication PMC9866191, “Novel 9-Benzylaminoacridine Derivatives as Dual Inhibitors of Phosphodiesterase 5 and Topoisomerase II for the Treatment of Colon Cancer” (Molecules, 2023).

Data set [1] has as its system HCT-116 cells. Description: Cell cycle analysis (PI, flow cytometry). It counts as cell-based, human. The conditions noted are these: 10 µM, 24 h, PI staining. Here is the method:
To analyze cell cycle changes, cells permeated at 1 × 10^6 × cells/mL were trypsinized and diluted and then fixed in 70% ethanol at 4 °C. Cell cycle arrest in HCT-116 cells following compound exposure was accomplished using propidium iodide (Sigma-Aldrich, St. Louis, MI, USA). The markers were then assessed using a FACS-Caliburflow cytometer (Beckman Coulter, Taipei, Taiwan) and analyzed using WinMDI software. […]
(§1) Figure 3 Apoptosis induction and cell cycle effects of compounds in HCT-116 cells. (A) The apoptotic population of HCT-116 cells was analyzed using flow cytometry after treatment with 10 µM of the test compound for 24 h followed by Annexin V/propidium iodide (PI) staining. (B) After treatment with compound concentrations of 10 µM for 24 h, cells were fixed, stained with propidium iodide (PI), and analyzed for cell cycle distribution. Results are expressed as the means ± SD from three independent experiments (* p < 0.05 and ** p < 0.01 *** p < 0.001, control versus compound).
On the technique in general: In flow cytometry, cells or beads pass a laser one at a time.

In a further data set the target is T1, PDE5A (Homo sapiens, UniProt O76074).
T1 construct: purchased BPS Bioscience, San Diego, CA, USA
The experiment in a line: Phosphodiesterase 5 HTRF cGMP assay. It is filed as biochemical. The conditions noted are these: for IC50: means ± S.D. (n = 4), read-out: PDE5 IC50; for inhibition at 10 µM: read-out: PDE5 % Inhibition at 10 μM. As to the method: All the synthesized acridine derivatives were tested for their in vitro ability to inhibit PDE5A at a screening dose of 10 µM.
The enzyme activities of phosphodiesterase 5 (PDE5) were measured using an HTRF cGMP assay kit (Cisbio, Codolet, France). […] Afterward, the HTRF reagent (cGMP-d2 and anti-cGMP-cryptate) was added for 1 h at 25 °C, and PDE activity was assayed on an HTRF reader (Tecan Infinite F200 Pro).
In general terms: TR-FRET usually uses a lanthanide donor and a delayed reading to cut background.

The test system of data set [2] is HCT-116 cells. Description: Annexin-V/PI apoptosis assay. It counts as cell-based, human. The note with it: 10 µM, 24 h. Here is the method: For the same set of compounds, the apoptosis-inducing effects in HCT-116 cells were assessed using Annexin-V/PI double staining at 10 µM (Figure 3).
The number of apoptotic/necrotic cells was analyzed using flow cytometry following the manufacturer’s protocol. Markers were assessed using a FACS-Caliburflow cytometer (Beckman Coulter, Taipei, Taiwan) and analyzed using WinMDI 2.8 software.
as §1

Another data set concerns the target T2, human DNA Topo II (Homo sapiens, UniProt P11388).
T2 construct: purchased Topogen, Columbus, OH, USA
Description: Topo II-mediated relaxation of supercoiled pHOT1 plasmid DNA. The note with it: for DNA band pattern in Topo II relaxation assay: at 1 and 5 µM doses, similar to doxorubicin; for concentration at which Topo II inhibition (increase of supercoiled DNA) is shown: cell-free relaxation assay, gel. It counts as biochemical. As to the method: Consequently, the effects of the synthesized compounds on Topo II activity were evaluated with a cell-free assay using a purified human DNA Topo II-protein-mediated relaxation of the negatively supercoiled pHOT1 plasmid DNA [40]. […] Two Topo II inhibitors (doxorubicin and etoposide) were used as positive controls.
The reaction was terminated by adding 2 μL of 10% SDS, followed by 2.5 μL of proteinase K (50 μg/mL) to digest the bound protein. The system was incubated at 37 °C for 15 min. The DNA product was finally analyzed using electrophoresis on a vertical 1.5% agarose gel at 2 volts/cm in 1 × TAE buffer and photographed using the Eagle Eye II system (Stratagene, La Jolla, CA, USA).
Figure 2 Effects of compounds on topoisomerase II activity. Effects on Topo II-mediated relaxation of supercoiled pHOT1 plasmid DNA in a cell-free system. Positive control: etoposide (10 µM); doxorubicin (5 µM) used as Topo II poison (induction of linear DNA); DNA relaxation: plasmid DNA + topo IIα + solvent control. Nick, nicked DNA; Sc, supercoiled DNA; Lin, linear DNA.

Entries after “also recorded” stand apart in the source; their conditions may differ. A value given as a limit tells only on which side of the number the result lay.

T2 sequence (P11388 whole entry): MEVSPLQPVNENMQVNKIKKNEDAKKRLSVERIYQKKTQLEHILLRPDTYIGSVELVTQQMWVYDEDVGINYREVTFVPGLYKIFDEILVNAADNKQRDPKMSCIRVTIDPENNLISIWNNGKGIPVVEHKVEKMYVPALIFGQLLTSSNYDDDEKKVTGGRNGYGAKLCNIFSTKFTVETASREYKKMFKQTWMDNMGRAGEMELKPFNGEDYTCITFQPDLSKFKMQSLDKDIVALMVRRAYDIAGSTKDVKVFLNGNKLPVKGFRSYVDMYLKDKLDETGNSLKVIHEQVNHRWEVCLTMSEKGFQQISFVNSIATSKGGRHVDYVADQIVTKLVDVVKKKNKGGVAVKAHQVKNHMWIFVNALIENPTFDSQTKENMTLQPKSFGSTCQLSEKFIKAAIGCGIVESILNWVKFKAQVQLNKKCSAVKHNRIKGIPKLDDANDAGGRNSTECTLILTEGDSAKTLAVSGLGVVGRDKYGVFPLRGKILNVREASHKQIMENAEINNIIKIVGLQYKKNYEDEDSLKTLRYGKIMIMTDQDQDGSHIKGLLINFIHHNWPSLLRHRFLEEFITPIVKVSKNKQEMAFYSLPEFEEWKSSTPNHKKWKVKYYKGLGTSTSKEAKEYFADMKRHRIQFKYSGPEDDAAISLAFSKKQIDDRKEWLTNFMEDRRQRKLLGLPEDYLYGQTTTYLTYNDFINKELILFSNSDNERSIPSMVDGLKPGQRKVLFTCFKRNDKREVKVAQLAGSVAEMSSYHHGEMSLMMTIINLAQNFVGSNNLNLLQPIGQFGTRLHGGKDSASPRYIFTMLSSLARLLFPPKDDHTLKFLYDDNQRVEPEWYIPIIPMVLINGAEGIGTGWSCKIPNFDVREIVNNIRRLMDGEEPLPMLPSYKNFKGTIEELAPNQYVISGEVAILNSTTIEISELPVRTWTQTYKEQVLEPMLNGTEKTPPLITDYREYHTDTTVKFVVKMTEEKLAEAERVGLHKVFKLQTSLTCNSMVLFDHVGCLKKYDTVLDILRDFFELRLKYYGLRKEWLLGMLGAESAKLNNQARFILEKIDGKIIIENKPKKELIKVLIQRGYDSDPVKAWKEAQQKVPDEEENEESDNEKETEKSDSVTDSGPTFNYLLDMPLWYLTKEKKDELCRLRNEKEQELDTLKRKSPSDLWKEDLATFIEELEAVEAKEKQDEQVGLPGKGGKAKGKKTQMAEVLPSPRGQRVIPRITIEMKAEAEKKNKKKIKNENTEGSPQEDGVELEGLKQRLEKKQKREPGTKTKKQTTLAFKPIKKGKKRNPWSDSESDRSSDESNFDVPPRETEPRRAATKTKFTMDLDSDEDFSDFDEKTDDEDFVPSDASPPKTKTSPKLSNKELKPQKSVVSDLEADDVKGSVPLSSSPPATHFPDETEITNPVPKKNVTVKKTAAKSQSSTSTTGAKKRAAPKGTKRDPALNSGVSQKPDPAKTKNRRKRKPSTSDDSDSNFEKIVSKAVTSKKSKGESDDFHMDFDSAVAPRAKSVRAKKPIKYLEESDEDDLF

For the compound `COc1ccc2nc3ccccc3c(NCc3ccccc3)c2c1` [Compound 25, Benzyl-(2-methoxyacridin-9-yl)-amine], the “effect on cell cycle” value in the data set on HCT-116 cells [1] is “cell cycle arrest in the G2/M phase; also recorded: increased the number of cells in the S phase and G2/M phase”. For the same compound, at PDE5A, the IC50 amounted to 3.61 ± 1 µM and the inhibition at 10 µM is 77.2 ± 3.03%. Besides, in the data set on HCT-116 cells [2], the induction of apoptosis is 20%–50%. On human DNA Topo II, the “DNA band pattern in Topo II relaxation assay” value (shortened to “DNA band pattern”) was “larger base pair band than nicked DNA”.

Take `Fc1ccccc1CNc1c2ccccc2nc2ccccc12` [Compound 8, Acridin-9-yl-(2-fluorobenzyl)-amine]: in the data set on HCT-116 cells [1], the “effect on cell cycle” value is recorded as “cell cycle arrest in the G2/M phase”. Besides, on PDE5A, the IC50 was determined as 7.16 ± 2.75 µM and the inhibition at 10 µM worked out at 57.5 ± 6.43%. For the same compound, the “DNA band pattern” value at human DNA Topo II was “larger base pair band than nicked DNA”.

Consider `c1csc(-c2ccc(CNc3c4ccccc4nc4ccccc34)cc2)c1` [Compound 24, Acridin-9-yl-(4-thiophen-2-yl-benzyl)-amine], for which the “effect on cell cycle” value in the data set with HCT-116 cells [1] was “arrested the cell cycle in the S phase”. Also, on PDE5A, the IC50 is above 10 µM and the inhibition at 10 µM stood at 42.9 ± 5.35%. The induction of apoptosis with HCT-116 cells [2] was 20%–50%. Besides, the “DNA band pattern” value on human DNA Topo II was “larger base pair band than nicked DNA”.

Take `Cc1ccc(CNc2c3ccccc3nc3ccccc23)cc1` [Compound 4, Acridin-9-yl-(4-methylbenzyl)-amine]: in the data set on HCT-116 cells [1], the “effect on cell cycle” value was “increased the number of cells in the S phase and G2/M phase”. Moreover, at PDE5A, the IC50 turned out to be 4.44 ± 1.82 µM and the inhibition at 10 µM was found to be 74 ± 12.4%.

On to `COc1ccc(CNc2c3ccccc3nc3ccccc23)cc1OC` [Compound 18, Acridin-9-yl-(3,4-dimethoxybenzyl)-amine], for which the “effect on cell cycle” value in the data set on HCT-116 cells [1] is “increased the number of cells in the S phase and G2/M phase”. Also, at PDE5A, the IC50 stood at 9.77 ± 3.11 µM and the inhibition at 10 µM is 51.2 ± 5.26%. Besides, the induction of apoptosis in the data set with HCT-116 cells [2] is reported as 20%–50%. Also, on human DNA Topo II, the “DNA band pattern” value was “larger base pair band than nicked DNA”.

As for `COc1cccc(CNc2c3ccccc3nc3ccccc23)c1` [Compound 6, Acridin-9-yl-(3-methoxybenzyl)-amine], the melting point lay in the range of 107 to 109 °C. For the same compound, at PDE5A, the IC50 was above 10 µM and the inhibition at 10 µM stood at 39.7 ± 3.2%.

In the case of `COc1ccc2nc3ccccc3c(NCc3ccc(Cl)cc3)c2c1` [Compound 29, (4-Chlorobenzyl)-(2-methoxyacridin-9-yl)-amine], the melting point was in the range of 178 to 180 °C. On PDE5A, the IC50 amounted to 5.35 ± 1.01 µM and the inhibition at 10 µM amounted to 66.1 ± 3.27%.

`c1ccc(CNc2c3ccccc3nc3ccccc23)cc1` [Compound 1, Acridin-9-yl-benzyl-amine]: the “effect on cell cycle” value in the data set with HCT-116 cells [1] is recorded as “arrested the cell cycle in the S phase”. Besides, on PDE5A, the IC50 came out at 9.33 ± 4.62 µM and the inhibition at 10 µM amounted to 52.2 ± 5.87%.

Take `Clc1ccccc1CNc1c2ccccc2nc2ccccc12` [Compound 11, Acridin-9-yl-(2-chlorobenzyl)-amine]: in the data set with HCT-116 cells [1], the “effect on cell cycle” value is given as “cell cycle arrest in the G2/M phase”. At PDE5A, the IC50 was 4.33 ± 2.35 µM and the inhibition at 10 µM was found to be 87.3 ± 3.68%. Further, on human DNA Topo II, the “DNA band pattern” value is “larger base pair band than nicked DNA” and the “concentration at which Topo II inhibition (increase of supercoiled DNA) is shown” value came to 0.04 µM.

The compound `COc1ccc(CNc2c3ccccc3nc3ccc(OC)cc23)cc1` [Compound 27, (2-Methoxyacridin-9-yl)-(4-methoxybenzyl)-amine] displayed a melting point of 168 to 170 °C. Besides, at PDE5A, the IC50 came to 1.87 ± 1.03 µM and the inhibition at 10 µM is 88.8 ± 4.84%.

For the compound `Cc1ccccc1CNc1c2ccccc2nc2ccccc12` [Compound 2, Acridin-9-yl-(2-methylbenzyl)-amine], the “effect on cell cycle” value in the data set with HCT-116 cells [1] is listed as “cell cycle arrest in the G2/M phase”. For the same compound, on PDE5A, the IC50 worked out at 9.87 ± 2.06 µM and the inhibition at 10 µM is 50.4 ± 3.68%.

Turning to `Clc1ccc(CNc2c3ccccc3nc3ccccc23)cc1` [Compound 13, Acridin-9-yl-(4-chlorobenzyl)-amine], the melting point lay within 145 to 147 °C. In addition, the “effect on cell cycle” value with HCT-116 cells [1] was “cell cycle arrest in the G2/M phase”. Moreover, at PDE5A, the IC50 was above 10 µM and the inhibition at 10 µM was 45.3 ± 3.99%.

Turning to `Clc1cccc(CNc2c3ccccc3nc3ccccc23)c1` [Compound 12, Acridin-9-yl-(3-chlorobenzyl)-amine], the “effect on cell cycle” value in the data set on HCT-116 cells [1] is on record as “cell cycle arrest in the G2/M phase”. At PDE5A, the IC50 was 6.29 ± 1.18 µM and the inhibition at 10 µM was 62.2 ± 4.94%. Moreover, the “concentration at which Topo II inhibition (increase of supercoiled DNA) is shown” value at human DNA Topo II was 0.2 µM.

Regarding `COc1ccc2nc3ccccc3c(NCc3ccc(C)cc3)c2c1` [Compound 26, (2-Methoxyacridin-9-yl)-(4-methylbenzyl)-amine], the melting point lay in the range of 131 to 133 °C. In addition, on PDE5A, the half-inhibitory concentration (IC50) is 0.83 ± 0.12 µM and the inhibition at 10 µM amounted to 88.1 ± 4.28%.

`COc1ccc(CNc2c3ccccc3nc3ccccc23)cc1` [Compound 7, Acridin-9-yl-(4-methoxybenzyl)-amine] came in with a melting point of 116 to 118 °C. For the same compound, on PDE5A, the IC50 was above 10 µM and the inhibition at 10 µM was below 0%.

Take `Fc1cccc(CNc2c3ccccc3nc3ccccc23)c1` [Compound 9, Acridin-9-yl-(3-fluorobenzyl)-amine]: in the data set with HCT-116 cells [1], the “effect on cell cycle” value was “cell cycle arrest in the G2/M phase”. At PDE5A, the IC50 came to 7.49 ± 2.2 µM and the inhibition at 10 µM was determined as 55.9 ± 5.78%. Also, the “DNA band pattern” value on human DNA Topo II is recorded as “larger base pair band than nicked DNA”.

`c1ccc(CCNc2c3ccccc3nc3ccccc23)cc1` [Compound 23, Acridin-9-yl-phenethyl-amine] came in with a melting point of 151 to 153 °C. On PDE5A, the IC50 turned out to be 6.68 ± 1.1 µM and the inhibition at 10 µM worked out at 57.3 ± 3.58%.

Regarding `Cc1cccc(CNc2c3ccccc3nc3ccccc23)c1` [Compound 3, Acridin-9-yl-(3-methylbenzyl)-amine], the “effect on cell cycle” value in the data set on HCT-116 cells [1] was “cell cycle arrest in the G2/M phase”. On PDE5A, the IC50 was 6.4 ± 1.89 µM and the inhibition at 10 µM came out at 59.3 ± 6.18%.

Compound `COc1ccc(CNc2c3ccccc3nc3ccccc23)c(OC)c1` [Compound 17, Acridin-9-yl-(2,4-dimethoxybenzyl)-amine] showed a melting point of 170 to 172 °C. Further, on PDE5A, the IC50 was found to be 6.77 ± 1.31 µM and the inhibition at 10 µM amounted to 60.2 ± 5.89%.

For the compound `COc1ccccc1CNc1c2ccccc2nc2ccccc12` [Compound 5, Acridin-9-yl-(2-methoxybenzyl)-amine], in the data set on HCT-116 cells [1], the “effect on cell cycle” value is “does not affect the cell cycle”. In addition, on PDE5A, the IC50 is above 10 µM and the inhibition at 10 µM stood at 45.1 ± 4.54%.

`Fc1ccc(CNc2c3ccccc3nc3ccccc23)cc1` [Compound 10, Acridin-9-yl-(4-fluorobenzyl)-amine]: the “effect on cell cycle” value in the data set on HCT-116 cells [1] is “increased the number of cells in the S phase and G2/M phase”. Besides, on PDE5A, the IC50 was above 10 µM and the inhibition at 10 µM came to 47 ± 7.06%.

The compound `COc1cccc(CNc2c3ccccc3nc3ccccc23)c1OC` [Compound 16, Acridin-9-yl-(2,3-dimethoxybenzyl)-amine] showed a melting point of 175 to 177 °C. Besides, on PDE5A, the IC50 is above 10 µM and the inhibition at 10 µM is 36.7 ± 8.14%.

As to `COc1ccc(CNc2c3ccccc3nc3ccccc23)cc1F` [Compound 19, Acridin-9-yl-(3-fluoro-4-methoxybenzyl)-amine], the melting point was in the range of 145 to 147 °C. Also, at PDE5A, the IC50 worked out at 3.39 ± 1.03 µM and the inhibition at 10 µM is 79.2 ± 8.48%.

The IC50 is the midpoint of a concentration-inhibition curve. One may read the inhibition as the relative decrease from the control value, in per cent. The term melting point denotes the temperature of the solid-liquid transition.
